Values of other authors in US20090202626A1, “TREATMENT OF BLADDER DISEASES WITH A TLR7 ACTIVATOR” (priority 2008, published 2009).

Columns and labels:
[1] = system: superficial skin cancer; conditions: in vivo
[2] = system: FCB bladder tumor
[3] = system: orthotopic bladder cancer

In the case of `CC(C)Cn1cnc2c(N)nc3ccccc3c21` [Imiquimod, imiquimod], the “efficacy in superficial skin cancer” value [1] is given as “demonstrated efficacy”, the “effect on FCB bladder tumor” value ([2]; mice) is given as “cured mice” and the “effect on chemically induced bladder cancer” value ([2]; mouse, in vivo) is given as “inhibited”. For the same molecule, the “mice that developed tumors” value ([3]; 100 μg once weekly, placebo 11 of 13 mice (85%)) was 3 of 14 and the anti-tumor activity ([3]; orthotopic bladder cancer mouse model) was “potent anti-tumor activity”.
